Results from US10774064B2 (Cadent Therapeutics, Inc., priority 2016, dated 2020).

target: T1, small-conductance Ca2+-activated K+ channels (SK channels, subtype 2) (Homo sapiens, UniProt Q9H2S1); assay: whole-cell patch-clamp of ionic current through SK2 channels in HEK293 cells (SC100); type: cell-based; conditions: concentration that increases the basal current by 100%; HEK293 cells expressing SK2 channels
T1 construct: expressed in transfected cells; host or cells: HEK293
How it was run: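 Whole-cell patch-clamp recording of current in HEK293 cells expressing SK2 channels. SC100 is the compound concentration that increases basal current by 100%.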

Row | SC100 | Compound
1 | + (+ means >1 uM) | Cc1cc(C)n(-c2cc(N3CC4(COC4)C3)nc(NC3CCC(F)(F)CC3)n2)n1 [Compound 108, N-(4,4-difluorocyclohexyl)-4-(3,5-dimethyl-1H-pyrazol-1-yl)-6-(2-oxa-6-azaspiro[3.3]heptan-6-yl)pyrimidin-2-amine]
2 | ++ (++ means 200 nM-1000 nM) | Cc1cc(C)n(-c2nc(NCc3cnn(C)n3)cc(NC3CCC(F)(F)CC3)n2)n1 [Compound 235, N4-(4,4-difluorocyclohexyl)-2-(3,5-dimethyl-1H-pyrazol-1-yl)-N6-((2-methyl-2H-1,2,3-triazol-4-yl)methyl)pyrimidine-4,6-diamine]
3 | + (+ means >1 uM) | Cc1cc(C)n(-c2nc3c(c(NC4CCC(F)(F)CC4)n2)CCN(CC(N)=O)C3)n1 [Compound 121, 2-(4-((4,4-difluorocyclohexyl)amino)-2-(3,5-dimethyl-1H-pyrazol-1-yl)-5,8-dihydropyrido[3,4-d]pyrimidin-7(6H)-yl)acetamide]
4 | + (+ means >1 uM) | CC(O)c1csc(-c2nc(NC3CCC(F)(F)CC3)cc(OC3CN(C(=O)C(C)(C)C)C3)n2)n1 (stereo not shown) [Compound 337]
5 | + (+ means >1 uM) | Cc1ccn(-c2cc(S(C)(=O)=O)cc(NC3CCC(F)(F)CC3)n2)n1 [Compound 153, N-(4,4-difluorocyclohexyl)-6-(3-methyl-1H-pyrazol-1-yl)-4-(methylsulfonyl)pyridin-2-amine]
6 | + (+ means >1 uM) | Cc1cc(NC2CCC(C(F)(F)F)CC2)nc(-n2ccc(C)n2)n1 (stereo not shown) [Compound 144, 6-methyl-2-(3-methyl-1H-pyrazol-1-yl)-N-(4-(trifluoromethyl)cyclohexyl)pyrimidin-4-amine]

same assay, conditions: whole-cell patch-clamp, HEK293 cells expressing SK2 channels; concentration that increases the basal current by 100%

Row | SC100 (μM) | Compound
7 | ++ (++ means 200 nM-1000 nM) | Cc1ccn(-c2nc(NC3CC=CCC3)cc(N3CC4(COC4)C3)n2)n1 (stereo not shown) [NSSy5670]
8 | + (+ means >1 uM) | CCOc1cc(-n2ccc(C)n2)nc(NC2CCC(F)(F)CC2)n1 [NSSy6625]
9 | ++ (++ means 200 nM-1000 nM) | Cc1ccn(-c2cc(COc3cccnn3)cc(NC3CCC(F)(F)CC3)n2)n1 [IN11217-056-P1, N-(4,4-difluorocyclohexyl)-6-(3-methyl-1H-pyrazol-1-yl)-4-((pyridazin-3-yloxy)methyl)pyridin-2-amine]
10 | + (+ means >1 uM) | Cc1cc(NC2CCC(F)(F)CC2)nc(-n2cc3c(n2)CCC3)n1 [IN11216-001-P1]
11 | + (+ means >1 uM) | Cc1csc(-c2nc(NC3CCC(F)(F)CC3)cc(N3C[C@@H]4C[C@H]3CN4)n2)n1 [IN10987-050-P1]
12 | ++ (++ means 200 nM-1000 nM) | FC1(F)CCC(Nc2cc(C3CC3)nc(-n3ccc(C4CC4)n3)n2)CC1 [IN11166-036-P1, 6-cyclopropyl-2-(3-cyclopropyl-1H-pyrazol-1-yl)-N-(4,4-difluorocyclohexyl)pyrimidin-4-amine]
13 | ++ (++ means 200 nM-1000 nM) | Cc1ccn(-c2cc(NC3CCC(F)(F)CC3)cc(OCc3ncnn3C)n2)n1 [NSSy5638, N-(4,4-difluorocyclohexyl)-2-((1-methyl-1H-1,2,4-triazol-5-yl)methoxy)-6-(3-methyl-1H-pyrazol-1-yl)pyridin-4-amine]
14 | ++ (++ means 200 nM-1000 nM) | COC(=O)N1CC(Oc2cc(NC3C4CC5CC(C4)CC3C5)nc(-n3ccc(C)n3)n2)C1 (stereo not shown) [NSSy6091]
15 | + (+ means >1 uM) | COc1cc(NC2CCC(F)(F)CC2)nc(-n2nc(C)cc2C)c1 [IN11054-038-P1]
16 | +++ (+++ means <200 nM) | Cc1ccn(-c2cc(C3CCN(C)CC3)cc(NC3CCC(F)(F)CC3)n2)n1 [NSSy6888]
17 | ++ (++ means 200 nM-1000 nM) | CNCc1cc(NC2CCC(F)(F)CC2)nc(-n2ccc(C)n2)c1 [IN11039-026-P1]
18 | + (+ means >1 uM) | Cc1ccn(-c2cc(N3CCOCC3)cc(C(O)c3ccc(F)cc3)n2)n1 (stereo not shown) [NSSy6472, (4-fluorophenyl) (6-(3-methyl-1H-pyrazol-1-yl)-4-morpholinopyridin-2-yl) methanol]

Row | Compound | SC100 (μM)
19 | COC(=O)N1CC(Oc2cc(NC3CCCCC3)nc(-c3csc(C)n3)n2)C1 [NSSy6133] | + (+ means >1 uM)
